In brackets after ≈: the same amount, converted by molar mass.
How the values were obtained:
[1] = Cytotoxicity assay (HepG2, CellTiter-Blue); format: cell-based; conditions: human, HepG2 cells, 3 days treatment
Protocol: The cytotoxicity of compounds of present invention was assessed by HepG2 assay. HepG2 cells (ATCC HB-8065™) were seeded into 96-well plates (1.2×10^4 cells per well) and treated with compounds for 3 days, cell viability was measured at day 3 post compound treatment using the CellTiter-Blue® Cell Viability Assay (Promega, Cat. No. G8082). 20 μL of Cell titer blue buffer were added to each well of the cells, incubated for 3 hours at 37° C., and the fluorescence value was measured by a plate reader (Molecular Device SpectraMax M2). The CC50 value of each compound is plotted with GraphPad Prism using four parameter logistic equation.

[2] = tested on: K. pneumoniae (ATCC10031); experiment: 50% growth inhibitory concentration (IC50) determination assay, K. pneumoniae; format: cell-based; conditions: Klebsiella pneumoniae, growth inhibition, Iso-Sensitest broth, OD 600 nm over 16 h, * = detection limit
Protocol: (§1) The in vitro antimicrobial activity of the compounds against E. coli (BW25113, obtained from Coli Genetic Stock Center, #7636) and K. pneumoniae (ATCC10031) was determined according to the following procedure:
(§2) The assay used a 10-points Iso-Sensitest broth medium to measure quantitatively the in vitro activity of the compounds against E. coli BW25113 and K. pneumoniae ATCC 10031.
(§3) Stock compounds in DMSO were serially two-fold diluted (range from 50 to 0.097 μM final concentration) in 384 wells microtiter plates and inoculated with 49 μL the bacterial suspension in Iso-Sensitest broth medium to have a final cell concentration of ˜5×10^5 CFU/mL in a final volume/well of 50 μL/well. Microtiter plates were incubated at 35±2° C.
(§4) Bacterial cell growth was determined with the measurement of optical density at k=600 nm each 20 minutes over a time course of 16 h.
(§5) Growth inhibition was calculated during the logarithmic growth of the bacterial cells with determination of the concentration inhibiting 50% (IC50) of the growth.

[3] = tested on: E. coli (BW25113); experiment: 50% growth inhibitory concentration (IC50) determination assay, E. coli; format: cell-based; conditions: Escherichia coli, growth inhibition, Iso-Sensitest broth, OD 600 nm over 16 h, 35±2° C., read-out: IC50 (μM) E. coli K12 BW25113
Protocol: as §1, §2, §3, §4, §5

[4] = tested on: E. coli (ATCC 25922); experiment: Minimal Inhibitory Concentration (MIC) assay; format: cell-based; conditions: Escherichia coli, ATCC25922; CAMHB, 20 hours at 35° C.; read-out: MIC (μg/mL) E. coli ATCC 25922
[5] = Lyophilisation solubility assay (LYSA); format: physicochemical; conditions: aqueous buffer, thermodynamic from solid; 0.05 M phosphate buffer, pH 6.5; * = detection limit

IC50 [2]	IC50 [3]	MIC [4]	solubility thermodynamic [5]	Structure (SMILES)	CC50 at 3 days [1]
≤ 0.098 µM	3.58 µM	0.017 µg/mL (≈ 0.0336 µM)	63 µg/mL (≈ 124 µM)	CNc1cc(F)c(F)c2c1[nH]c1ncc(-c3ccc4ncc(C(=O)O)c(=O)n4c3)c(N3CCOCC3)c12 [Example 1.10, 7-(5,6-Difluoro-8-(methylamino)-4-morpholino-9H-pyrido[2,3-b]indol-3-yl)-4-oxo-4H-pyrido[1,2-a]pyrimidine-3-carboxylic acid]	> 100 µM
≤ 0.098 µM	2.86 µM	0.0909 µg/mL (≈ 0.179 µM)	162 µg/mL (≈ 320 µM)	CNc1c(F)c(F)cc2c1[nH]c1ncc(-c3ccc4ncc(C(=O)O)c(=O)n4c3)c(N3CCOCC3)c12 [Example 1.13, 7-(6,7-Difluoro-8-(methylamino)-4-morpholino-9H-pyrido[2,3-b]indol-3-yl)-4-oxo-4H-pyrido[1,2-a]pyrimidine-3-carboxylic acid]	80.1 µM
